Key:
[1] = test system: Wnt/β-catenin signaling (β-catenin activity) in SW480 cell line; test: Cell-based Wnt agonist screening, TCF luciferase reporter, SW480 (TCF-FL); parameters: species or system human; conditions: % of LiCl (20 mM); for Emax at 30 µM: Con. 30 μM; for Emax at 120 µM: Con. 120 μM
Source text: (§1) In order to measure the in vitro activity of compounds of the present invention, two human cancer cell lines, HEK293 and SW480, which have intact Wnt signaling and show APC gene mutation in the Wnt signaling pathway, respectively, were used.
(§2) For evaluating the activity of wnt/β-catenin signaling in the cancer cell lines, gene as illustrated in FIG. 1 having β-catenin-binding sites of the Tcf/Lef transcriptional control protein (5 sites of TCF, 5X TCF) and having a fire fly luficerase as a marker protein ascertainable the activity of 5X TCF was introduced into the cells. Treatment with G418 led monoclones of the cell lines, in which the genes were permanently expressed, so as to construct a cell-based Wnt agonist screening system. […] For comparison with the activity of the isoxazole derivatives as Wnt agonists, lithium chloride (LiCl), acting as a positive control for the cell-based Wnt agonist screening system, was used to determine the expression level of the luciferase, and the results are shown in FIG. 3.
(§3) The cell lines, in which a cell-based Wnt agonist screening system was constructed, were cultured in RPMI 1640 media supplemented with penicillin-streptomycin (100 Units/mL) and heat-inactivated 5% fetal bovine serum under standard culture conditions (5% CO2, 37° C., 100% relative humidity). […] The suspension was diluted with the same medium to adjust the cell count to 8,000˜15,000 cells per well and was moved then in a 96-well microtiter plate. After being incubated for 24 hrs, the cells were treated with various concentrations of the isoxazole derivatives synthesized in Preparation Examples. Incubation for an additional 24 hours was followed by the quantitative analysis of luciferase activity using a Luciferase Assay kit (Promega, U.S.A.) according to the protocol described in the manual provided by the manufacturer. Data on the activities of the isoxazole derivatives thus synthesized are given in Tables 34 to 43, and are expressed as percentages relative to the activity of the positive control LiCl (20 mM), a well-known agonist of Wnt signaling.

[2] = test system: ST-2, a murine bone marrow stromal T cell; test: Differentiation of ST2 cell line into osteoblasts, alkaline phosphatase activity; type: cell-based; conditions: Mus musculus, 96 h; ST-2 cells, 11 μM compound, 4 days; control treated only with ascorbic acid and β-glycerolphosphate = 100; read-out: ALP Activity (% Control)
Procedure: The derivatives synthesized according to the present invention were assayed for their ability to differentiate stem cells into osteoblasts. In this regard, ST-2, a murine bone marrow stromal T cell, was used to measure the activity of bone-specific alkaline phosphatase, a marker of early-stage osteoblast differentiation. In detail, the cell line was cultured in an MEM supplemented with penicillin-streptomycin (100 Units/mL) and heat-inactivated 5% fetal bovine serum under standard culture conditions (5% CO2, 37° C., 100% relative humidity). […] The suspension was diluted with the same medium to adjust the cell count to 5,000˜10,000 cells per well, and was moved in a 96-well microtiter, subsequently. After being incubated for 24 hrs, the cells were treated in a medium containing 50 μg/ml of ascorbic acid and 5 mM of β-glycerolphosphate with various concentrations of the isoxazole derivatives synthesized in Preparation Examples. During incubation for one to nine days, the Alkaline phosphatase activity was analyzed using a […] Assay kit (Promega, U.S.A.) according to the protocol described in the manual provided by the manufacturer. The activities were measured in cells which had been incubated at 11 μM of each of the compounds for 4 days. Data on the activities of the isoxazole derivatives synthesized are given in Tables 44 to 47 and are expressed as percentages of ALP relative to that measured in the control, which was treated only with ascorbic acid and β-glycerolphosphate. ALP activities according to the concentrations of Derivative (1) are depicted in FIG. 5.

[3] = test system: Wnt/β-catenin signaling (β-catenin activity) in HEK293 cell line; test: Cell-based Wnt agonist screening, TCF luciferase reporter, HEK293 (TCF-FL); parameters: species or system human; conditions: % of LiCl (20 mM); for Emax at 30 µM: Conc. 30 μM; for Emax at 120 µM: Conc. 120 μM
Source text: as §1, §2, §3

[4] = Homo sapiens, 24 h, read-out: Max. Activity (%)
[5] = Homo sapiens, HEK293, 24 h, 24 h, read-out: Max. Activity (%)

With `O=C(NCCn1cccn1)c1cc(-c2ccco2)on1` [Derivative (39), 5-furan-2-yl-isoxazole-3-carboxylic acid (2-pyrazol-1-yl-ethyl)-amide] the Emax at 30 µM [1, 4] was 344% and the activity at 11 µM [2] was 190%.

Compound `O=C(NCCn1cnnn1)c1cc(-c2ccco2)on1` [Derivative (43), 5-furan-2-yl-isoxazole-3-carboxylic acid (2-tetrazol-1-yl-ethyl)-amide] has an Emax at 120 µM [1, 4] of 357% and an activity at 11 µM [2] of 455%.

Compound `Cc1nccn1CCCNC(=O)c1cc(-c2ccco2)on1` [Derivative (44), 5-furan-2-yl-isoxazole-3-carboxylic acid [3-(2-methyl-imidazol-1-yl)-propyl]-amide] has an Emax at 120 µM [1, 4] of 657% and an activity at 11 µM [2] of 997%.

For `O=C(NCCCn1cnnn1)c1cc(-c2ccco2)on1` [Derivative (52), 5-furan-2-yl-isoxazole-3-carboxylic acid (3-tetrazol-1-yl-propyl)-amide], the activity at 11 µM [2] was 438%.

`O=C(NCCCn1ccnc1)c1cc(-c2ccncc2)on1` [Derivative (77), 5-pyridin-4-yl-isoxazole-3-carboxylic acid (3-imidazol-1-yl-propyl)-amide] was tested, and the Emax at 30 µM [1, 4] was less than 20% and the Emax at 30 µM [3, 5] was less than 20%.

In the case of `Cc1ccccc1-c1cc(C(=O)NCCCn2ccnc2)no1` [Derivative (78), 5-o-tolyl-isoxazole-3-carboxylic acid (3-imidazol-1-yl-propyl)-amide], the Emax at 120 µM [1, 4] is reported as 42% and the Emax at 120 µM [3, 5] is reported as 42%.

For `Cc1cccc(-c2cc(C(=O)NCCCn3ccnc3)no2)c1` [Derivative (79), 5-m-tolyl-isoxazole-3-carboxylic acid (3-imidazol-1-yl-propyl)-amide], the Emax at 10 µM ([1]; Homo sapiens, 24 h, Con. 10 μM, read-out: Max. Activity (%)) was 48% and the Emax at 10 µM ([3]; Homo sapiens, HEK293, 24 h, 24 h, Conc. 10 μM, read-out: Max. Activity (%)) was 48%.

`Cc1ccc(-c2cc(C(=O)NCCCn3ccnc3)no2)cc1` [Derivative (80), 5-p-tolyl-isoxazole-3-carboxylic acid (3-imidazol-1-yl-propyl)-amide] showed an Emax at 120 µM [1, 4] of 58% and an Emax at 120 µM [3, 5] of 58%.

With `O=C(NCCCn1ccnc1)c1cc(-c2ccccc2F)on1` [Derivative (81), 5-(2-fluoro-phenyl)-isoxazole-3-carboxylic acid (3-imidazol-1-yl-propyl)-amide] the Emax at 120 µM [1, 4] was 869% and the Emax at 120 µM [3, 5] was 869%.

With `O=C(NCCCn1ccnc1)c1cc(-c2cccc(F)c2)on1` [Derivative (82), 5-(3-fluoro-phenyl)-isoxazole-3-carboxylic acid (3-imidazol-1-yl-propyl)-amide] the Emax at 120 µM [1, 4] was 67% and the Emax at 120 µM [3, 5] was 67%.

With `O=C(NCCCn1cncn1)c1cc(-c2ccc(F)cc2)on1` [Derivative (84), 5-(4-fluoro-phenyl)-isoxazole-3-carboxylic acid (3-[1,2,4]triazol-1-yl-propyl)-amide] the Emax at 30 µM [1, 4] was 907% and the Emax at 30 µM [3, 5] was 907%.

`O=C(NCCn1cncn1)c1cc(-c2ccc(F)cc2)on1` [Derivative (88), 5-(4-fluoro-phenyl)-isoxazole-3-carboxylic acid (2-[1,2,4]triazol-1-yl-ethyl)-amide] was tested, and the Emax at 120 µM [1, 4] was 600% and the Emax at 120 µM [3, 5] was 600%.

`O=C(NCCn1nccn1)c1cc(-c2ccc(F)cc2)on1` [Derivative (89), 5-(4-fluoro-phenyl)-isoxazole-3-carboxylic acid (2-[1,2,3]triazol-2-yl-ethyl)-amide] was tested, and the Emax at 30 µM [1, 4] was 132% and the Emax at 30 µM [3, 5] was 132%.

Work on `O=C(NCCn1ccnn1)c1cc(-c2ccc(F)cc2)on1` [Derivative (90), 5-(4-fluoro-phenyl)-isoxazole-3-carboxylic acid (2-[1,2,3]triazol-1-yl-ethyl)-amide] yielded an Emax at 30 µM [1, 4] of 92% and an Emax at 30 µM [3, 5] of 92%.

In the case of `O=C(NCCn1ncnn1)c1cc(-c2ccc(F)cc2)on1` [Derivative (91), 5-(4-fluoro-phenyl)-isoxazole-3-carboxylic acid (2-tetrazol-2-yl-ethyl)-amide], the Emax at 30 µM [1, 4] is reported as 103% and the Emax at 30 µM [3, 5] is reported as 103%.

`COc1ccccc1-c1cc(C(=O)NCCCn2ccnc2)no1` [Derivative (99), 5-(2-methoxy-phenyl)-isoxazole-3-carboxylic acid (3-imidazol-1-yl-propyl)-amide] was tested, and the Emax at 120 µM [1, 4] was 37% and the Emax at 120 µM [3, 5] was 37%.

`COc1cccc(-c2cc(C(=O)NCCCn3ccnc3)no2)c1` [Derivative (100), 5-(3-methoxy-phenyl)-isoxazole-3-carboxylic acid (3-imidazol-1-yl-propyl)-amide] gave an Emax at 120 µM [1, 4] of 59% and an Emax at 120 µM [3, 5] of 59%.

In the case of `O=C(NCCCn1ccnc1)c1cc(-c2cccc(O)c2)on1` [Derivative (106), 5-(3-hydroxy-phenyl)-isoxazole-3-carboxylic acid (3-imidazol-1-yl-propyl)-amide], the Emax at 30 µM [1, 4] is reported as 277%, the Emax at 7.5 µM ([3]; Homo sapiens, HEK293, 24 h, 24 h, Conc. 7.5 μM, read-out: Max. Activity (%)) is reported as 29% and the Emax at 30 µM [3, 5] is reported as 277%.

For `O=C(NCCCn1ccnc1)c1cc(-c2ccc(O)cc2)on1` [Derivative (107), 5-(4-hydroxy-phenyl)-isoxazole-3-carboxylic acid (3-imidazol-1-yl-propyl)-amide], the Emax at 60 µM ([1]; Homo sapiens, 24 h, Con. 60 μM, read-out: Max. Activity (%)) was 584%, the Emax at 30 µM [3, 5] was 28% and the Emax at 60 µM ([3]; Homo sapiens, HEK293, 24 h, 24 h, Conc. 60 μM, read-out: Max. Activity (%)) was 584%.

With `O=C(NCCc1ccncc1)c1cc(-c2cccc(O)c2)on1` [Derivative (108), 5-(3-hydroxy-phenyl)-isoxazole-3-carboxylic acid (2-pyridin-4-yl-ethyl)-amide] the Emax at 15 µM ([1]; Homo sapiens, 24 h, Con. 15 μM, read-out: Max. Activity (%)) was 600%, the Emax at 15 µM ([3]; Homo sapiens, HEK293, 24 h, 24 h, Conc. 15 μM, read-out: Max. Activity (%)) was 600% and the Emax at 30 µM [3, 5] was less than 20%.

`O=C(NCCc1cccnc1)c1cc(-c2cccc(O)c2)on1` [Derivative (110), 5-(3-hydroxy-phenyl)-isoxazole-3-carboxylic acid (2-pyridin-3-yl-ethyl)-amide] was tested, and the Emax at 30 µM [1, 4] was less than 20% and the Emax at 30 µM [3, 5] was less than 20%.

In the case of `O=C(NCCCn1ccnc1)c1cc(-c2ccccc2[N+](=O)[O-])on1` [Derivative (112), 5-(2-nitro-phenyl)-isoxazole-3-carboxylic acid (3-imidazol-1-yl-propyl)-amide], the Emax at 120 µM [1, 4] is reported as 51% and the Emax at 120 µM [3, 5] is reported as 51%.

Compound `O=C(NCCCn1ccnc1)c1cc(-c2cccc([N+](=O)[O-])c2)on1` [Derivative (113), 5-(3-nitro-phenyl)-isoxazole-3-carboxylic acid (3-imidazol-1-yl-propyl)-amide] has an Emax at 120 µM [1, 4] of 46% and an Emax at 120 µM [3, 5] of 46%.

For `Nc1cccc(-c2cc(C(=O)NCCCn3ccnc3)no2)c1` [Derivative (119), 5-(3-amino-phenyl)-isoxazole-3-carboxylic acid (3-imidazol-1-yl-propyl)-amide], the Emax at 120 µM [1, 4] was 43%, the Emax at 30 µM [3, 5] was less than 20% and the Emax at 120 µM [3, 5] was 43%.

With `[Cl-].[Li+]` [LiCl, lithium chloride, reference compound] the “Max. Activity (%)” value ([1]; Con. 20000 μM) was 100% and the “Max. Activity (%)” value ([3]; Conc. 20000 μM) was 100%.
